Source: US5210077A, “Antibodies to cytokinins having a glycosylated isoprenoid side chain and immunoassay methods” (The United States of America as represented by the …, priority 1989, dated 1993)
pIC50: −log10 of the molar value. “Also recorded” adds a separate entry of the source. Read-outs that look alike come from different tables or passages of the source.

Key:
[1] = test system: mouse polyclonal antibodies; experiment: Inhibition ELISA for the mouse polyclonal antibodies; type: binding; details: for binding by the mouse polyclonal antibody (in words): inhibition ELISA; for Antibody Bound (%): inhibition ELISA with hapten, None = 100
Description: Mouse antibodies were elicited in BALB/c mice by two intraperitoneal inoculations at 3-week intervals with the bovine serum albumin conjugate of E-9-(2-carboxyethyl)zeatin-O-β-D-glucopyranoside emulsified in complete Freund's adjuvant. The dosage was 50-80 μg of conjugate in 0.1-0.2 mL. The mice were bled 1 week after the second injection, and sera were obtained, and tested for antibody.
(§1) Antibodies were screened and further analyzed by solid-phase enzyme immunoassays as follows. Polyvinylchloride assay plates (Costar, Cambridge, MA), were coated with appropriate serum albumin conjugate (made with the O-glucoside derivative or the oxidized zeatin riboside, 10 μg/mL in PBS, 50 μL/well) for 4 h at room temperature or overnight at 4°. Plates were then washed with PBS containing 0.05% "Tween"-20 (PBS-Tween). Remaining sites were blocked by incubation for 1 h with 100 μL/well of 1% BSA in PBS-"Tween" solution (BSA-PBS-"Tween"). Plates were then rewashed and stored for up to 3 weeks at 4° in PBS containing sodium azide.
(§2) Direct binding (titration) and inhibition assays were performed with antibodies dissolved in BSA-PBS-"Tween", a diluent selected to minimize nonspecific interactions with the solid phase, and to suppress binding to the solid phase by antibodies specific for serum albumin.
(§3) Inhibition assay format was used to assess antibody specificity. Antibody at an appropriate dilution determined by titration to give between 50 and 100% of maximal binding was mixed with hapten solution and preincubated for 1 h at room temperature prior to application to the coated wells. In both formats, samples (50 μL/well) were generally applied to plates in triplicate and were incubated 1 h, with shaking. Plates were emptied, washed, rinsed with distilled water, and drained. HRP-labeled rabbit anti-mouse IgG (Zymed Laboratories, South San Francisco, CA) was added at an appropriate dilution (50 μL/well) and incubated for 1 h with shaking. The plates were then washed as before, and bound HRP detected by addition of 50 μL/well of substrate (1 mM ABTS and 6.7 mM H2 O2 in 60 mM sodium citrate buffer, pH 4.2). The absorbance was determined at 415 nm with a microplate reader (Model 308, Bio-Tek, Winooski, VT), generally after 15 min. In some cases, reactions were terminated by addition of 50 μL/well of 10% sodium dodecylsulfate.

[2] = test system: monoclonal antibody ATCC HB 9658; experiment: Inhibition ELISA, specificity of monoclonal antibody ATCC HB 9658; type: binding, mouse; details: for Relative I50 (relative to E-zeatin-O-β-D-glucopyranoside) / pIC50: antibody ATCC HB 9658; for pIC50: read-out: I50
Description: as §1, §2
as §3, with “Antibody at an appropriate dilution determined by titration to give between 50 and 100% of maximal binding was mixed with hapten solution and preincubated for 1 h at room temperature prior to application to the coated wells.” left out
Calculations were performed as follows. Assay data was fit to a logistic model. Asymptotic values were determined by inspection of the assay curves, and other coefficients were determined by linear regression. […] Relative affinities are expressed using E-zeatin riboside or E-zeatin-O-β-D-glucopyranoside as standards.

[3] = test system: monoclonal antibody ATCC HB 9658; experiment: Competition ELISA with HRP conjugate of 9-(2-carboxyethyl)zeatin-O-β-D-glucopyranoside and monoclonal antibody ATCC HB 9658; type: binding, mouse; details: for pIC50: read-out: I50
Description: Competition ELISA using cytokinin conjugates of HRP was performed using polystyrene assay plates coated with mouse monoclonal antibodies specific for cytokinins. […] Immediately before use, assay plates were coated with 1 μg/mL of monoclonal IgG in BSA-PBS-Tween. Samples were mixed with an appropriate concentration of cytokinin-HRP conjugate and applied to assay wells in replicate (100 μL/well). After 1 h, wells were drained, washed, and rinsed. Bound conjugate was detected with ABTS substrate solution and quantified by determining absorbance at 415 nm. Calculations were performed as follows. Assay data was fit to a logistic model. Asymptotic values were determined by inspection of the assay curves, and other coefficients were determined by linear regression. […] Relative affinities are expressed using E-zeatin riboside or E-zeatin-O-β-D-glucopyranoside as standards.

Compound	binding by antibody of clone 240 / ATCC HB 9658 (in words) [2]	binding reduced relative to zeatin-O-β-D-glucopyranoside ([2]; inhibition ELISA, FIG. 4)	pIC50 ([2]; inhibition ELISA)	pIC50 [3]	binding by antibody of clone 240 / ATCC HB 9658 (in words) ([2]; listed as E-zeatin-O-β-D-glucopyranoside)	binding by antibody of clone 240 / ATCC HB 9658 (in words) ([2]; listed as zeatin-O-β-D-glucopyranoside)	binding by the mouse polyclonal antibody (in words) [1]	Antibody Bound (%) [1]	Relative I50 (relative to E-zeatin-O-β-D-glucopyranoside) ([2]; inhibition ELISA)	Relative I50 (relative to E-zeatin-O-β-D-glucopyranoside) [3]
C/C(=C\CNc1ncnc2[nH]cnc12)CO [E-Zeatin, E-zeatin]	does not bind significantly; also recorded: do not bind	at least 10,000 fold	< 4.00	< 4.00			do not bind	99 ± 3%	> 1100	> 4800
CO[C@@H]1O[C@H](CO)[C@@H](O)[C@H](O)[C@H]1O [β-Methylglucoside, β-methyl-D-glucopyranoside]				< 3.00						> 48000
CC(CO)CCNc1ncnc2nc[nH]c12 (racemic) [Dihydrozeatin, (RS)-dihydrozeatin]			< 3.00	< 4.00					> 11000	> 4800
C/C(=C\CNc1ncnc2c1ncn2CCC(=O)O)CO[C@@H]1O[C@H](CO)[C@@H](O)[C@H](O)[C@H]1O [Carboxyethylzeatin-O-β-D-glucopyranoside, E-9-(2-carboxyethyl)zeatin-O-β-D-glucopyranoside]							binds	76 ± 1%		
C/C(=C\CNc1ncnc2c1ncn2[C@@H]1O[C@H](CO)[C@@H](O)[C@H](O)[C@H]1O)CO [E-Zeatin-9-β-D-glucopyranoside]	do not bind		< 4.00	< 3.00					> 1100	> 48000
C/C(=C\CNc1ncnc2c1ncn2[C@@H]1O[C@H](CO)[C@@H](O)[C@H]1O)CO [9-ribosylzeatin]	do not bind									

The next lines start with results.

binding by antibody of clone 240 / ATCC HB 9658 (in words) [2]	binding reduced relative to zeatin-O-β-D-glucopyranoside ([2]; inhibition ELISA, FIG. 4)	pIC50 ([2]; inhibition ELISA)	pIC50 [3]	binding by antibody of clone 240 / ATCC HB 9658 (in words) ([2]; listed as E-zeatin-O-β-D-glucopyranoside)	binding by antibody of clone 240 / ATCC HB 9658 (in words) ([2]; listed as zeatin-O-β-D-glucopyranoside)	Compound	binding by the mouse polyclonal antibody (in words) [1]	Antibody Bound (%) [1]	Relative I50 (relative to E-zeatin-O-β-D-glucopyranoside) ([2]; inhibition ELISA)	Relative I50 (relative to E-zeatin-O-β-D-glucopyranoside) [3]
		< 3.00	< 4.00			CC(C)=CCNc1ncnc2nc[nH]c12 [Isopentenyladenine, N^6-2-isopentenyladenine]			> 11000	> 4800
		5.92	6.31			C/C(=C\CN1C(=O)c2ccccc2C1=O)CO[C@@H]1O[C@H](CO)[C@@H](O)[C@H](O)[C@H]1O [PBG, E-2-methyl-4-phthalimidobut-2-enyl-β-D-glucopyranoside]			14	23
		7.06	7.68	bind	binds	CC(=CCNc1ncnc2[nH]cnc12)COC1OC(CO)C(O)C(O)C1O [E-Zeatin-O-β-D-glucopyranoside, E-zeatin-O-β-D-glucopyranoside]			1	1
		6.52	7.46			C/C(=C\CNc1ncnc2c1ncn2[C@@H]1O[C@H](CO)[C@@H](O)[C@H]1O)CO[C@@H]1O[C@H](CO)[C@@H](O)[C@H](O)[C@H]1O [O-β-D-Glucopyranosyl-E-zeatin-9-riboside]			3.4	1.7
